Consider 9 compounds from ChEMBL document CHEMBL1129998, “Pharmacological options in the treatment of benign prostatic hyperplasia” (J Med Chem, 1997).

Test [1] addresses T1, Adrenergic receptor alpha-1 (Homo sapiens, UniProt P35348+P25100+P35368).
T1 sequence (P35348 whole entry): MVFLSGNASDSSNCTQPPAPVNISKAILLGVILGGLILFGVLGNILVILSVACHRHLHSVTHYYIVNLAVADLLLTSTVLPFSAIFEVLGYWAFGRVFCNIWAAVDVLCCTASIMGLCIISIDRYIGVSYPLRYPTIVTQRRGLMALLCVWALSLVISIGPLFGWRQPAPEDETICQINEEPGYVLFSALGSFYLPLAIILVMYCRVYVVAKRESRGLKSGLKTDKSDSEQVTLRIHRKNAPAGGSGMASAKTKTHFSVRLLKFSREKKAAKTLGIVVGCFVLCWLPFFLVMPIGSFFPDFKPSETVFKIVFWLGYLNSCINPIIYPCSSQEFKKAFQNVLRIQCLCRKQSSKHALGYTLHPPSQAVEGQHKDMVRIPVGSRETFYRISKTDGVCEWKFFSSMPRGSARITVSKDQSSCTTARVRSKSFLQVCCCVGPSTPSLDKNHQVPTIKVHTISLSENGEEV
T1 sequence (P25100 whole entry): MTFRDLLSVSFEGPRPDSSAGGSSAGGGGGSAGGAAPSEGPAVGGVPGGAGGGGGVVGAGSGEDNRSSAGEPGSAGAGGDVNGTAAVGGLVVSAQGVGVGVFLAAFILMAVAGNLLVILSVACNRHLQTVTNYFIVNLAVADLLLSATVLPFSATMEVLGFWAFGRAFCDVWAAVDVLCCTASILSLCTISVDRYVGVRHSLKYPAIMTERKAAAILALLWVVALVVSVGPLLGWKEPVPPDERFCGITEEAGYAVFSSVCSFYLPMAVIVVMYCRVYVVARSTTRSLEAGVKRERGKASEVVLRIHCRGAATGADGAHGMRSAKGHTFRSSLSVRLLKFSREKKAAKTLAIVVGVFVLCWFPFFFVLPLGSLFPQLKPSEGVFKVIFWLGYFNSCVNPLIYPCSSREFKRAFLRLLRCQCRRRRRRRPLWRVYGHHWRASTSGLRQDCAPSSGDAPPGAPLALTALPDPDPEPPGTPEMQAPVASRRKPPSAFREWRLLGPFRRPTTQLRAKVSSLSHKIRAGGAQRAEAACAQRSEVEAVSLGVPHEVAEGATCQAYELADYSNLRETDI
T1 sequence (P35368 whole entry): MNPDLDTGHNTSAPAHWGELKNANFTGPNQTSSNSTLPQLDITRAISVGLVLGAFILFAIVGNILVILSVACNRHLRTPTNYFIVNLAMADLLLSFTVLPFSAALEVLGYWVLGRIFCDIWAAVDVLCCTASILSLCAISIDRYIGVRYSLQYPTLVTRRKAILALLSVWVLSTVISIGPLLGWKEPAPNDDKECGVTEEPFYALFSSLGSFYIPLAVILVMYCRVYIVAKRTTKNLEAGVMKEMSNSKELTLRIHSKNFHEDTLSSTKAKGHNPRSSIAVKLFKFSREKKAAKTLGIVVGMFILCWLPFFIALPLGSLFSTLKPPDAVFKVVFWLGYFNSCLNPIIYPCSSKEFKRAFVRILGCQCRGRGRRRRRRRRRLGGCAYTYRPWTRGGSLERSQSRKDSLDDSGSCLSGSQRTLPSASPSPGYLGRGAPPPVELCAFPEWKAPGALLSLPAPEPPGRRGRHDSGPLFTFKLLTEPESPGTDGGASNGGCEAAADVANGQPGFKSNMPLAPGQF
Put plainly: pA2 for Alpha-1 adrenergic receptor from human prostate. It counts as tissue-based, Prostate gland.

Test [2] concerns Canis familiaris. Put plainly: 50% reduction in intraurethral pressure (IUP) in response to hypogastric nerve stimulation or agonist (phenylephrine or norepinephrine) administration in anesthetized dog. It counts as functional. Conditions: Canis lupus familiaris; read-out: ID50 (the source's name).
Test [3] in a line: Ratio of intraurethral pressure to that of pressor response in dog. It counts as functional.
For test [4], the target named is T2, Alpha-1D adrenergic receptor (Homo sapiens, UniProt P25100).
T2 sequence (P25100 whole entry): T1 sequence (P25100 whole entry)
Put plainly: Binding affinity was tested on human Alpha-1D adrenergic receptor.

Test [5] has as its system Canis familiaris. Put plainly: 50% reduction in agonist induced pressor response in anesthetized dog. To be noted: Canis lupus familiaris; read-out: ID50 (the source's name). It is filed as functional.
The target of test [6] is T3, Alpha-1B adrenergic receptor (Homo sapiens, UniProt P35368).
T3 sequence (P35368 whole entry): T1 sequence (P35368 whole entry)
Put plainly: Binding affinity was tested on human Alpha-1B adrenergic receptor.

The target in test [7] is T4, Alpha-1A adrenergic receptor (Homo sapiens, UniProt P35348).
T4 sequence (P35348 whole entry): T1 sequence (P35348 whole entry)
Put plainly: Binding affinity was tested on human Alpha-1A adrenergic receptor.

Test [8] addresses T5, 3-oxo-5-alpha-steroid 4-dehydrogenase 2 (Homo sapiens, UniProt P31213).
T5 sequence (P31213 whole entry): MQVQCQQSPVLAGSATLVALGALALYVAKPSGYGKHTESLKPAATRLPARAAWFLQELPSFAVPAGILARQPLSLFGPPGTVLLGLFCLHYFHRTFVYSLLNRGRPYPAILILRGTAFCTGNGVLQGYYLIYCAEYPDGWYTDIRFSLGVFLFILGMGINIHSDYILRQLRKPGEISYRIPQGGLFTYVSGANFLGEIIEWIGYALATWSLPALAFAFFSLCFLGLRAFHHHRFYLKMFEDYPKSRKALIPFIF
Put plainly: Binding affinity for human 5-alpha reductase 2 isozyme.

In test [9] the target is T6, 3-oxo-5-alpha-steroid 4-dehydrogenase 1 (Homo sapiens, UniProt P18405).
T6 sequence (P18405 whole entry): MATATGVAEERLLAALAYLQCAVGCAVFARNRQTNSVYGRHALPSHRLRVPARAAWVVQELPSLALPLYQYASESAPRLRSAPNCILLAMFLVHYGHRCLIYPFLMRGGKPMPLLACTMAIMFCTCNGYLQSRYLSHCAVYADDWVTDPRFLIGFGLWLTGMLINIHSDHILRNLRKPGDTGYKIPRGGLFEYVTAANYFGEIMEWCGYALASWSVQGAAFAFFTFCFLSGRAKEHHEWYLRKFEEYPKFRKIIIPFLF
Put plainly: Binding affinity for human 5 alpha reductase 1 isozyme.

Test [10] deals with T7, Steroid 5-alpha-reductase (Rattus norvegicus, UniProt P24008+P31214).
T7 sequence (P24008 whole entry): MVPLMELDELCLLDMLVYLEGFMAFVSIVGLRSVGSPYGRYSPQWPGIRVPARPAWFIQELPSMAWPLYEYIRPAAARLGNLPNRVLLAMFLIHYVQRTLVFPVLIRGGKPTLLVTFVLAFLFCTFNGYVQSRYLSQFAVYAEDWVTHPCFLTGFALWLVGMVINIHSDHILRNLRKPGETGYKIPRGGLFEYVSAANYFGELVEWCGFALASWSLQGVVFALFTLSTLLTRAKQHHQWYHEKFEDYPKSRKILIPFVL
T7 sequence (P31214 whole entry): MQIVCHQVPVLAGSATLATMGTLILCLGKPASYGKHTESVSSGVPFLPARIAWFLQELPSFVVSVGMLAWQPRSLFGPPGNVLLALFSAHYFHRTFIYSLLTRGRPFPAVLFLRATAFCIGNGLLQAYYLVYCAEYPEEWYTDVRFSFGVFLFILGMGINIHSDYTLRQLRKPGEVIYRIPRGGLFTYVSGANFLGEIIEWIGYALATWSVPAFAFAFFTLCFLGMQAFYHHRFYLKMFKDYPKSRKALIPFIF
Put plainly: (§1) Binding affinity on rat 5-alpha reductase-1 isozyme. It counts as protein assay.

In test [11] the target is T8, 3-oxo-5-alpha-steroid 4-dehydrogenase 2 (Rattus norvegicus, UniProt P31214).
T8 sequence (P31214 whole entry): T7 sequence (P31214 whole entry)
Put plainly: Binding affinity on rat 5-alpha reductase-2 isozyme.

Test [12] concerns the target T9, 3-oxo-5-alpha-steroid 4-dehydrogenase 1 (Rattus norvegicus, UniProt P24008).
T9 sequence (P24008 whole entry): T7 sequence (P24008 whole entry)
The description is as §1.

The target in test [13] is T10, Alpha-1A adrenergic receptor (Rattus norvegicus, UniProt P43140).
T10 sequence (P43140 whole entry): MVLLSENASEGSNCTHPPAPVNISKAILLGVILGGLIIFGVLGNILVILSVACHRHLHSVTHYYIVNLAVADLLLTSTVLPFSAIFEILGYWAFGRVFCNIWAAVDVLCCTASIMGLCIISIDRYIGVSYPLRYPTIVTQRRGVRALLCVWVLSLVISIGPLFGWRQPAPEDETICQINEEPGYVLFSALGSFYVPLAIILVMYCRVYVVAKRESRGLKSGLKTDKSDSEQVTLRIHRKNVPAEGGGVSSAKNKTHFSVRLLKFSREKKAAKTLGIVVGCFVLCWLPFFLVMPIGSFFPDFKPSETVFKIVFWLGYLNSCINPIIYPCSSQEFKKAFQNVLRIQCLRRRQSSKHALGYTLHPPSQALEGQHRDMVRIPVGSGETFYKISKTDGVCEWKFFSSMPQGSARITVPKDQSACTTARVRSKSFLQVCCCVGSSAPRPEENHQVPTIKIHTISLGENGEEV
Put plainly: Binding affinity was tested on CEC-pretreated rat hippocampus Alpha-1A adrenergic receptor. It is filed as tissue-based.

Test [14] in a line: In vivo dose (iv) for 50% inhibition of norepinephrine-mediated contraction of proximal urethra (ID50) with the dose (iv) for 25% reduction in systolic blood pressure (ED25) in anesthetized dogs. It is filed as functional.
In test [15] the target is T11, Alpha-1B adrenergic receptor (Rattus norvegicus, UniProt P15823).
T11 sequence (P15823 whole entry): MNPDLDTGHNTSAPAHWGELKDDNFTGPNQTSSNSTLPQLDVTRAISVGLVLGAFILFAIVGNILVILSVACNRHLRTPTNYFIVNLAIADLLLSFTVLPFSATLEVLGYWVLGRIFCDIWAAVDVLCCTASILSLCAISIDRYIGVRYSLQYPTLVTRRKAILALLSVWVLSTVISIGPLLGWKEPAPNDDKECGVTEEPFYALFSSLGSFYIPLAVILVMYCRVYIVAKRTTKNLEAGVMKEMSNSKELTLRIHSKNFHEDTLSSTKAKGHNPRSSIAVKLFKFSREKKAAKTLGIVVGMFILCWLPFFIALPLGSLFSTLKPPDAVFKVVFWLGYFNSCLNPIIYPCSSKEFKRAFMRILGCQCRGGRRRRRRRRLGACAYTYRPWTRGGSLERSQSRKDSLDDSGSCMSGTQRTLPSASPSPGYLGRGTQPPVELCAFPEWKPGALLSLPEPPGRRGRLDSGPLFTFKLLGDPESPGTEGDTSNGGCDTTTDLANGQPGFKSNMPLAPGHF
Put plainly: Binding affinity was tested on CEC-pretreated rat liver Alpha-1B adrenergic receptor.

The nature of test [16]: Dose (iv) for 20% reduction of mean blood pressure in rat (ID20) with the dose for 50% inhibition of norepinephrine-mediated contraction of proximal urethra (ID50) in cat. It is filed as functional.
Test [17] addresses 3 beta-hydroxysteroid dehydrogenase/Delta 5-->4-isomerase type 1 (Homo sapiens, UniProt P14060). Put plainly: Binding affinity on 3 beta-hydroxysteroid dehydrogenase.
For test [18], the target named is T5, 3-oxo-5-alpha-steroid 4-dehydrogenase 2. Put plainly: Inhibitory concentration on human 5-alpha reductase 2 (transfected SW-13 cells).

Sequence of 3 beta-hydroxysteroid dehydrogenase/Delta 5-->4-isomerase type 1 (P14060 whole entry): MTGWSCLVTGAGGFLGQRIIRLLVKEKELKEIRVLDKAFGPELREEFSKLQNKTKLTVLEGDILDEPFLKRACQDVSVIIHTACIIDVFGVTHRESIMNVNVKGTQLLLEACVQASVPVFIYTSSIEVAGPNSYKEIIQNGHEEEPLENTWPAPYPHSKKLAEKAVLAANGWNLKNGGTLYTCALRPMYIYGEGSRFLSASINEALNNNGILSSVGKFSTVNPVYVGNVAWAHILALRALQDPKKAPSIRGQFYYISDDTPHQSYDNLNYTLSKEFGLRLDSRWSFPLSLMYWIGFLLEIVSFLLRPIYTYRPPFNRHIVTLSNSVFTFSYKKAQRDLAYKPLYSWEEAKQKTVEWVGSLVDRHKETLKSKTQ

A word on the pA2: it is a measure of antagonist potency on a negative log scale. In general, Ki refers to the dissociation constant of the complex between target and ligand, obtained from inhibition or displacement. Low values mean tighter binding, high ones weaker binding. As for `Cc1c[nH]c(=O)n(CCCN2CCN(c3ccc(F)cc3OCC(F)(F)F)CC2)c1=O`, the pA2 in test [1] was determined as 8.8. Further, the ED50 stood at 0.005 mg/kg in the test with Canis familiaris [2] and 0.38 mg/kg in the test with Canis familiaris [5]. For the same compound, in test [3], the Ratio is on record as 76. Moreover, the figures for the inhibitory constant (Ki) in test [4], in [6] and in test [7] were 0.1 µM, 0.0794 µM and 0.001 µM, respectively.

For orientation: IC50 means the midpoint of a concentration-inhibition curve. `CC1=C2NCC3C(CC[C@@]4(C)C3CC[C@@H]4C(=O)Nc3cc(C(F)(F)F)ccc3C(F)(F)F)[C@@]2(C)CCC1=O` (stereo partly specified) came in with an IC50 in [8] below 0.0001 µM. The compound also yielded a Ki in test [9] of 0.0002 µM.

Regarding `C[C@]12CCC(C(=O)O)=CC1=CCc1cc(Cl)ccc12`, in test [10], the Ki was found to be 1.2 µM.

In the case of `CN1C(=O)CC[C@@H]2c3ccc(Cl)cc3CC[C@H]21` [BEXLOSTERIDE], the inhibition constant (Ki) in test [11] amounted to 10 µM; in test [12], 0.008 µM.

Regarding `CC(C)(C)NC(=O)[C@H]1CC[C@H]2[C@@H]3CC[C@H]4NC(=O)C=C[C@]4(C)[C@H]3CC[C@]12C` [FINASTERIDE], the Ki in [9] is 0.15 µM.

In the case of `COc1ccccc1N1CCN(CCNC(=O)c2cccc3c(=O)c(C)c(-c4ccccc4)oc23)CC1`, the IC50 in [13] was found to be 0.014 µM; in test [15], 0.079 µM. In addition, the Ratio in test [14] stood at 14.

With `COc1ccc(Cl)cc1N1CCN(CCCNc2nccc(C(N)=O)n2)CC1`, the pA2 in [1] was 8.6. In addition, the ED50 in the test on Canis familiaris [2] was determined as 0.005 mg/kg; with Canis familiaris [5], 0.021 mg/kg. For the same compound, the Ratio in test [16] turned out to be 46; in test [3], 5. Also, the inhibitory constant (Ki) in test [4] is 0.00251 µM; in test [6], 0.0126 µM; in test [7] it was 0.00251 µM.

In turn, `CC(C)(C)CC(C)(C)NC(=O)[C@H]1CCC2C3CNC4=CC(=O)CC[C@]4(C)C3CC[C@@]21C` (stereo partly specified) displayed an IC50 in test [17] of 0.15 µM.

On to `CC(C)(C)NC(=O)[C@H]1CCC2C3CCC4=C(C#N)C(=O)CC[C@]4(C)C3CC[C@@]21C` (stereo partly specified), for which the IC50 in test [18] was found to be 0.0029 µM.
